From PubChem BioAssay (NCI)
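96-well plates; 48 h exposure; 5 concentrations. Endpoints by linear interpolation between flanking doses. Not reached: highest tested concentration assigned. GI50 marks 50% less growth. TGI is the concentration that stops growth completely.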

Key:
Assay in all cases: growth of human tumour cells (NCI), 48 h
SNB-75 CNS = tested on: SNB-75 CNS
SK-OV-3 ovarian = tested on: SK-OV-3 ovarian
MCF7 breast = tested on: MCF7 breast
KM12 colon = tested on: KM12 colon
NCI-H522 lung = tested on: NCI-H522 lung
MDA-MB-435 = tested on: MDA-MB-435
OVCAR-4 ovarian = tested on: OVCAR-4 ovarian
PC-3 prostate = tested on: PC-3 prostate
SN12C renal = tested on: SN12C renal
HCT-116 colon = tested on: HCT-116 colon
HT29 colon = tested on: HT29 colon
SF-539 CNS = tested on: SF-539 CNS
RPMI-8226 leukemia = tested on: RPMI-8226 leukemia
T-47D breast = tested on: T-47D breast
HS 578T breast = tested on: HS 578T breast
HCT-15 colon = tested on: HCT-15 colon
EKVX NSCLC = tested on: EKVX NSCLC
SK-MEL-2 melanoma = tested on: SK-MEL-2 melanoma
HOP-92 NSCLC = tested on: HOP-92 NSCLC
MOLT-4 leukemia = tested on: MOLT-4 leukemia
TK-10 renal = tested on: TK-10 renal
OVCAR-5 ovarian = tested on: OVCAR-5 ovarian
MDA-MB-231 breast = tested on: MDA-MB-231 breast
SW-620 colon = tested on: SW-620 colon
A498 renal = tested on: A498 renal
SR leukemia = tested on: SR leukemia
SK-MEL-5 melanoma = tested on: SK-MEL-5 melanoma
NCI-H226 lung = tested on: NCI-H226 lung
HL-60(TB) leukemia = tested on: HL-60(TB) leukemia
OVCAR-8 ovarian = tested on: OVCAR-8 ovarian
OVCAR-3 ovarian = tested on: OVCAR-3 ovarian
SF-268 CNS = tested on: SF-268 CNS
786-0 renal = tested on: 786-0 renal
CAKI-1 renal = tested on: CAKI-1 renal
SK-MEL-28 melanoma = tested on: SK-MEL-28 melanoma
M14 melanoma = tested on: M14 melanoma
U251 CNS = tested on: U251 CNS
DU-145 prostate = tested on: DU-145 prostate
CCRF-CEM leukemia = tested on: CCRF-CEM leukemia
NCI/ADR-RES ovarian = tested on: NCI/ADR-RES ovarian
SF-295 CNS = tested on: SF-295 CNS
IGROV1 ovarian = tested on: IGROV1 ovarian
HOP-62 NSCLC = tested on: HOP-62 NSCLC
UACC-62 melanoma = tested on: UACC-62 melanoma
UO-31 renal = tested on: UO-31 renal
A549 NSCLC = tested on: A549 NSCLC
NCI-H23 lung = tested on: NCI-H23 lung
UACC-257 melanoma = tested on: UACC-257 melanoma
BT-549 breast = tested on: BT-549 breast
HCC-2998 colon = tested on: HCC-2998 colon
RXF 393 renal = tested on: RXF 393 renal
K-562 leukemia = tested on: K-562 leukemia
ACHN renal = tested on: ACHN renal
SNB-19 CNS = tested on: SNB-19 CNS
COLO 205 colon = tested on: COLO 205 colon
LOX IMVI melanoma = tested on: LOX IMVI melanoma
NCI-H460 lung = tested on: NCI-H460 lung

SMILES: C=C(C)C(=O)Oc1ccc(N=Nc2ccc(C)cc2)ccc1=O
- GI50 (SNB-75 CNS): 2.66 µM
- TGI (SNB-75 CNS): 10.3 µM
- GI50 (SK-OV-3 ovarian): 4.72 µM
- TGI (SK-OV-3 ovarian): 27.7 µM
- GI50 (MCF7 breast): 3.66 µM
- TGI (MCF7 breast): 14.7 µM
- GI50 (KM12 colon): 3.51 µM
- TGI (KM12 colon): 13.5 µM
- GI50 (NCI-H522 lung): 4.95 µM
- TGI (NCI-H522 lung): 18.1 µM
- GI50 (MDA-MB-435): 2.77 µM
- TGI (MDA-MB-435): 11.2 µM
- GI50 (OVCAR-4 ovarian): 3.63 µM
- TGI (OVCAR-4 ovarian): 14.4 µM
- GI50 (PC-3 prostate): 5.54 µM
- TGI (PC-3 prostate): 24.4 µM
- GI50 (SN12C renal): 3.89 µM
- TGI (SN12C renal): 18.5 µM
- GI50 (HCT-116 colon): 2.98 µM
- TGI (HCT-116 colon): 10.5 µM
- GI50 (HT29 colon): 4.28 µM
- TGI (HT29 colon): 15.1 µM
- GI50 (SF-539 CNS): 5.17 µM
- TGI (SF-539 CNS): 18.1 µM
- GI50 (RPMI-8226 leukemia): 3.73 µM
- TGI (RPMI-8226 leukemia): 17.8 µM
- GI50 (T-47D breast): 3.14 µM
- TGI (T-47D breast): 14.7 µM
- GI50 (HS 578T breast): 4.33 µM
- TGI (HS 578T breast): 24.3 µM
- GI50 (HCT-15 colon): 3.55 µM
- TGI (HCT-15 colon): 18.5 µM
- GI50 (EKVX NSCLC): 2.32 µM
- TGI (EKVX NSCLC): 8.76 µM
- GI50 (SK-MEL-2 melanoma): 8.31 µM
- TGI (SK-MEL-2 melanoma): 28.6 µM
- GI50 (HOP-92 NSCLC): 3.64 µM
- TGI (HOP-92 NSCLC): 16.1 µM
- GI50 (MOLT-4 leukemia): 2.57 µM
- TGI (MOLT-4 leukemia): 8.18 µM
- GI50 (TK-10 renal): 10.7 µM
- TGI (TK-10 renal): 82.4 µM
- GI50 (OVCAR-5 ovarian): 8.26 µM
- TGI (OVCAR-5 ovarian): 21.8 µM
- GI50 (MDA-MB-231 breast): 4.84 µM
- TGI (MDA-MB-231 breast): 22 µM
- GI50 (SW-620 colon): 3.16 µM
- TGI (SW-620 colon): 13.4 µM
- GI50 (A498 renal): 3.72 µM
- TGI (A498 renal): 14.6 µM
- GI50 (SR leukemia): 2.47 µM
- TGI (SR leukemia): 8.28 µM
- GI50 (SK-MEL-5 melanoma): 4 µM
- TGI (SK-MEL-5 melanoma): 15.2 µM
- GI50 (NCI-H226 lung): 3.57 µM
- TGI (NCI-H226 lung): 18.6 µM
- GI50 (HL-60(TB) leukemia): 2.39 µM
- TGI (HL-60(TB) leukemia): 7.04 µM
- GI50 (OVCAR-8 ovarian): 3.15 µM
- TGI (OVCAR-8 ovarian): 10.9 µM
- GI50 (OVCAR-3 ovarian): 2.09 µM
- TGI (OVCAR-3 ovarian): 8.13 µM
- GI50 (SF-268 CNS): 2.62 µM
- TGI (SF-268 CNS): 11.2 µM
- GI50 (786-0 renal): 4.96 µM
- TGI (786-0 renal): 17.8 µM
- GI50 (CAKI-1 renal): 2.26 µM
- TGI (CAKI-1 renal): 5.6 µM
- GI50 (SK-MEL-28 melanoma): 3.39 µM
- TGI (SK-MEL-28 melanoma): 11.7 µM
- GI50 (M14 melanoma): 3.21 µM
- TGI (M14 melanoma): 12.7 µM
- GI50 (U251 CNS): 3.11 µM
- TGI (U251 CNS): 12.7 µM
- GI50 (DU-145 prostate): 4.36 µM
- TGI (DU-145 prostate): 15.8 µM
- GI50 (CCRF-CEM leukemia): 2.24 µM
- TGI (CCRF-CEM leukemia): 9.36 µM
- GI50 (NCI/ADR-RES ovarian): 3.14 µM
- TGI (NCI/ADR-RES ovarian): 11.4 µM
- GI50 (SF-295 CNS): 1.66 µM
- TGI (SF-295 CNS): 4.66 µM
- GI50 (IGROV1 ovarian): 2.54 µM
- TGI (IGROV1 ovarian): 9.15 µM
- GI50 (HOP-62 NSCLC): 3.78 µM
- TGI (HOP-62 NSCLC): 14.9 µM
- GI50 (UACC-62 melanoma): 1.95 µM
- TGI (UACC-62 melanoma): 4.42 µM
- GI50 (UO-31 renal): 2.55 µM
- TGI (UO-31 renal): 8.38 µM
- GI50 (A549 NSCLC): 3.81 µM
- TGI (A549 NSCLC): 18.3 µM
- GI50 (NCI-H23 lung): 4.52 µM
- TGI (NCI-H23 lung): 17.8 µM
- GI50 (UACC-257 melanoma): 2.99 µM
- TGI (UACC-257 melanoma): 13 µM
- GI50 (BT-549 breast): 6.63 µM
- TGI (BT-549 breast): 21.3 µM
- GI50 (HCC-2998 colon): 3.74 µM
- TGI (HCC-2998 colon): 14 µM
- GI50 (RXF 393 renal): 3.93 µM
- TGI (RXF 393 renal): 14.8 µM
- GI50 (K-562 leukemia): 3.36 µM
- TGI (K-562 leukemia): 13.6 µM
- GI50 (ACHN renal): 3.96 µM
- TGI (ACHN renal): 15.8 µM
- GI50 (SNB-19 CNS): 3.68 µM
- TGI (SNB-19 CNS): 21.8 µM
- GI50 (COLO 205 colon): 3.58 µM
- TGI (COLO 205 colon): 14.6 µM
- GI50 (LOX IMVI melanoma): 2.72 µM
- TGI (LOX IMVI melanoma): 11.4 µM
- GI50 (NCI-H460 lung): 2.85 µM
- TGI (NCI-H460 lung): 10.2 µM
